Reference: patent US7288527B2, “Inhibition of allergic contact dermatitis by N-L-alpha-aspartyl-L-phenylalanine 1-methyl ester” (priority 2004, dated 2007)
Residues, ends and D or L forms follow the SMILES beside them.

How the values were obtained:
[1] = test system: skin which may be exposed to urushiol; assay: Prevention of urushiol-induced dermatitis on human skin (Example 2); type: in vivo; conditions: thin film of APM suspended in a petroleum cream base applied before exposure
From the text: To an area of skin which may be exposed to urushiol is applied a thin film of APM suspended in a petroleum cream base.

[2] = cited from earlier work
[3] = test system: capsaicin burning of the eye; assay: Alleviation of capsaicin burning of the eye (Example 7); type: in vivo, human; conditions: about 10 mg per 250 microliters in sterile saline applied to the affected eye
Method: A kitchen worker is exposed to capsaicin oil from peppers during cooking preparation, the oil is transferred to their hands and then, by their hands, to their eyes, resulting in a burning sensation and pain. […] The application may be repeated in 15 min because tearing may dilute or wash away the active ingredients.

[4] = test system: human rash secondary to urushiol exposure; assay: Treatment of rash caused by urushiol (Example 4); type: in vivo
Method: A human rash, with itching, in progress secondary to contact with an animal known to have had significant exposure to urushiol substances was arrested in 8 hours with 2 applications of aspartame in a Vaseline Intensive Care Lotion base (about 1.2 to 10 mg/ml). The itching ceased, and discomfort and irritation resolved within 8 hours.

[5] = test system: capsaicin burning and pain of mucosa, eyes or nose; assay: APM against inadvertent mucosal contact with capsaicin cream (Example 8); type: in vivo, human; conditions: preparation comprising 38 mg of APM per 5 ml applied to the affected area
Method: A patient is treated for arthritis with a capsaicin cream applied twice daily to the affected joint. Capsaicin is absorbed by the transdermal tissue and then transported to joint area. After an appropriate interval, for instance 2-5 days, significant reduction in swelling, heat, redness, and pain is observed. However, the patient also inadvertently contacts his or her urethra, periurethra tissues, vaginal mucosa, rectal mucosa, eyes, or nose with the capsaicin cream, resulting in a sensation of burning and pain in the affected area.

[6] = test system: capsaicin taste receptor (tongue); assay: Oral application of APM with capsaicin-containing red pepper sauce; type: in vivo
From the text: The variability in observable results in preventing dermatitis or topical irritation appear related to the amount of APM that is applied, the time and order of the therapeutic application, and the presence of receptors to which either the irritant oil or APM may bind.

[7] = test system: skin previously exposed to urushiol; assay: Treatment of allergic contact dermatitis with APM in a cream base (Example 1); type: in vivo; conditions: thin film of APM in a cream base; after sixty (60) minutes
From the text: To an area of skin previously exposed to urushiol is applied a thin film of APM in a cream base. […] Further treatment may include washing the affected area to remove and displace urushiol dissolved in the applied lotion and followed by reapplication of APM containing cream or lotion.

[8] = test system: human skin exposed to urushiol (poison sumac, poison ivy); assay: Treatment and prevention of urushiol-induced dermatitis on human skin (Example 3, Patient 1); type: in vivo; conditions: topical lotion with 0.5 to 1 mg APM/ml, two to three times per day, also two packets Equal by mouth
Method: The goats frequently consumed and were in contact with both poison sumac and poison ivy abundant in their enclosure without experiencing symptoms.
A topical APM preparation was made by mixing 2 to 3 packets of Equal® brand sweetner (80-120 mg of APM) with approximately 170 ml (5.5 fluid ounces) of lotion containing Vaseline® Intensive Care® Water Resistant Moisturizing Lotion (Unilever United States, Inc.), resulting in a lotion with 0.5 to 1 mg APM/ml. Patient 1 had previously used the lotion base without effect. Patient 1 also took two packets of Equal® brand sweetener by mouth in response to a symptom of diarrhea, a condition known to be associated with urishiol.
A soap and water scrub of the affected area was done one hour after application of the cream, and the affected area allowed to air dry.
Additional affected areas were then discovered on Patient 1, and a lotion was prepared for Patient 1 to use on these areas as well as unaffected areas that could come in contact with poison ivy during their work. Patient 1 used additional topical APM preparation approximately two to three times per day.

[9] = test system: capsaicin burning sensation on the tongue; assay: Treatment of capsaicin irritation of the tongue (Example 6); type: in vivo, human; conditions: dry powder, at least about 10 mg APM per 250 microliters of saliva
Method: A person eating spicy food seasoned with peppers is exposed to capsaicin, an irritant oil related to urushiol, causing an uncomfortable burning sensation on the tongue. APM or a derivative thereof is applied to the affected area as a dry powder in the amount of at least about 10 mg APM per 250 microliters of saliva, resulting in relief. Preferably, about 35 to about 80 mg of APM is applied to the area affected.

## COC(=O)[C@H](Cc1ccccc1)NC(=O)[C@@H](N)CC(=O)O [APM, N-L-alpha-aspartyl-L-phenylalanine 1-methyl ester] (H-Asp-Phe-OMe)
[1]
  symptoms of allergic contact dermatitis (prophylactic use): either do not appear or are significantly reduced
[2]; pH 2.2
  maximum solubility in water: 20 mg/mL
[2]; pH 5.2
  minimum solubility in water: 13.5 mg/mL
[3]
  burning sensation of the eye: the burning sensation is alleviated
[4]; 2 applications of aspartame in Vaseline Intensive Care Lotion base (about 1.2 to 10 mg/ml)
  time to arrest of rash with itching: 8 h
[4]; 2 applications, lotion base about 1.2 to 10 mg/ml
  time until itching ceased and discomfort and irritation resolved: ≤ 8 h
[4]; overnight after 2 applications, lotion base about 1.2 to 10 mg/ml
  state of rash overnight: the rash was gone
[5]
  burning and pain in the affected area: reducing or eliminating the burning and pain
[6]; long duration of exposure to capsaicin leading to secondary effects
  APM response after long exposure to capsaicin: not as strong nor as quick
[6]; oral application of APM before red pepper sauce
  recognition of spicyness of red pepper sauce: absence of recognition of the spicyness
[6]; red pepper sauce applied to the tongue first, APM applied after
  effect on developed sensations of heat and irritation: displacement by APM of capsaicin from the taste receptor is manifested and recognized quickly
[7]
  symptoms of allergic contact dermatitis: significantly reduced
[8]
  rash or reaction observed on the day after application: no rash or reaction had occurred
[9]
  burning sensation on the tongue: relief
